Broadly, the IC50 is the concentration that inhibits the measured activity by half. Read a low IC50 as higher potency.

Among the data in ChEMBL document CHEMBL1147476, “Synthesis and evaluation of aminophosphinic acid derivatives as inhibitors of renal dipeptidase” (Bioorg Med Chem Lett, 2004) are IC50 values, retold here.

The structures appear in SMILES notation.

The assay concerns the target T1, Dipeptidase 1 (Homo sapiens, UniProt P16444).
T1 sequence (P16444 whole entry): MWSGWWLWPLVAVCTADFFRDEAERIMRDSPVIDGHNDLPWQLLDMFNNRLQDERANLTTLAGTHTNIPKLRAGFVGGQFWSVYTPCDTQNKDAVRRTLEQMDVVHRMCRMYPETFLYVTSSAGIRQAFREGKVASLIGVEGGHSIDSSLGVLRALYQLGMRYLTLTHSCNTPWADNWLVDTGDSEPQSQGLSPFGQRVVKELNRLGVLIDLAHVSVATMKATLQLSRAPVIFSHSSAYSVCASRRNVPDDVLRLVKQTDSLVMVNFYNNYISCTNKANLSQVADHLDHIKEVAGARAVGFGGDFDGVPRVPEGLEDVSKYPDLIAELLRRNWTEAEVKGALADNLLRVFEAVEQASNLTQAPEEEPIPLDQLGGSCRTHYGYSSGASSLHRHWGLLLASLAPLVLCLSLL
The experiment in a line: Concentration required to inhibit renal dipeptidase (RDP) by 50% in crude lysates prepared from human colon cancer.
In the case of `NC(CC1CCCCC1)P(=O)(O)C/C(=C/c1ccc(F)cc1)C(=O)O` (centres undefined), the IC50 is 0.015 µM. This counts as double-digit nanomolar.

`NC(CC1CCCCC1)P(=O)(O)C/C(=C\c1ccc(F)c(Br)c1)C(=O)O` (centres undefined): the IC50 was found to be 0.04 µM.

Take `NC(CC1CCCCC1)P(=O)(O)C/C(=C/c1ccc(I)cc1)C(=O)O` (centres undefined): half-maximal inhibition (IC50) required 0.025 µM.

The molecule `NC(CC1CCCCC1)P(=O)(O)C/C(=C\c1ccc(I)cc1)C(=O)O` (centres undefined) yielded an IC50 of 0.008 µM.

`NC(CC1CCCCC1)P(=O)(O)C/C(=C\c1ccc(Cl)c(Cl)c1)C(=O)O` (centres undefined) yielded an IC50 of 0.02 µM.

Consider `NC(CC1CCCCC1)P(=O)(O)C/C(=C\c1ccccc1I)C(=O)O` (centres undefined), for which the IC50 was 0.1 µM. Against the preceding molecule, the IC50 is about 5-fold higher.

The molecule `NC(CC1CCCCC1)P(=O)(O)C/C(=C/c1ccc(Br)cc1)C(=O)O` (centres undefined) returned an IC50 of 0.03 µM.

For the molecule `NC(CC1CCCCC1)P(=O)(O)C/C(=C/c1ccc(F)c(Cl)c1)C(=O)O` (centres undefined), it took 0.35 µM to reach half-maximal inhibition (IC50).

`NC(CC1CCCCC1)P(=O)(O)C/C(=C\c1ccc(F)c(Cl)c1)C(=O)O` (centres undefined) returned an IC50 of 0.03 µM.

Consider `NC(CC1CCCCC1)P(=O)(O)C/C(=C\c1ccc(F)cc1)C(=O)O` (centres undefined), for which the 50% inhibitory concentration (IC50) came to 0.005 µM.

With `NC(CC1CCCCC1)P(=O)(O)C/C(=C\c1ccc(Br)cc1)C(=O)O` (centres undefined), half-maximal inhibition (IC50) required 0.006 µM.

On to `NC(CC1CCCCC1)P(=O)(O)C/C(=C/c1ccc(F)c(Br)c1)C(=O)O` (centres undefined), for which half-maximal inhibition (IC50) was put at 3 µM. Against the preceding molecule, the IC50 is about 500-fold higher.

In turn, `NC(CC1CCCCC1)P(=O)(O)C/C(=C/c1ccccc1I)C(=O)O` (centres undefined) returned an IC50 of 1 µM.

Turning to `NC(CC1CCCCC1)P(=O)(O)C/C(=C/c1ccc(C(F)(F)F)cc1)C(=O)O` (centres undefined), 0.2 µM corresponded to half-maximal inhibition (IC50).

Turning to `NC(CC1CCCCC1)P(=O)(O)C/C(=C/c1ccc(Cl)c(Cl)c1)C(=O)O` (centres undefined), the IC50 turned out to be 0.2 µM.

Molecule `NC(CC1CCCCC1)P(=O)(O)C/C(=C\c1cccc(I)c1)C(=O)O` (centres undefined) came in with an IC50 of 0.045 µM. Compared with the last molecule, the IC50 is about 4.4-fold lower.

In turn, `Nc1ccc(/C=C(\CP(=O)(O)C(N)CC2CCCCC2)C(=O)O)cc1` (centres undefined) returned an IC50 of 0.07 µM.

As for `NC(CC1CCCCC1)P(=O)(O)C/C(=C/c1cccc(I)c1)C(=O)O` (centres undefined), the IC50 was 0.25 µM.

As for `Nc1ccc(/C=C(/CP(=O)(O)C(N)CC2CCCCC2)C(=O)O)cc1` (centres undefined), the IC50 is 0.15 µM. This IC50 lies about 1.7-fold lower than the previous one.
